Values joined by “and” are separate entries in the source; they are usually repeats but may differ in a detail not shown here. Identical values can stand only once. Like-named read-outs stand apart in the source and are kept apart here.
Legend:
[1] = test system: MOG induced EAE; experiment: MOG induced EAE in C57BL/6 mice; assay type: in vivo; conditions: 10 mg/kg orally, daily; for Mortality: Day 0 to Day 30; for % inhibition 1 (according to incidence) / % inhibition 2 (according to MMS) / % inhibition 3 (according to GMS): compared to vehicle; for Incidence: sick mice/group
[2] = Pharmacokinetic profile in rat plasma following oral administration; assay type: in vivo
Protocol: The main objectives of this example were: • Quantification of Compound 1, Compound 2, Compound 3 and Laquinimod in rat plasma using LC/MS/MS bioanalytical method. • Characterization of the pharmacokinetic profile of Compound 1, Compound 2, Compound 3 and Laquinimod following oral (PO) administration at a dose of 0.2 mg/kg. • The measurement DELAQ concentrations in the collected plasma samples. Rats cannulated at the right common jugular vein by polyethylene tubing were used. In the in-life part, three cannulated female rats were treated with each of the four test articles at dose of 0.2 mg/kg. Blood was withdrawn from the rats at five different time points for the preparation of plasma. The concentrations of Compound 1, Compound 2, Compound 3, laquinimod, and DELAQ were determined in these plasma samples, using applicable LC/MS/MS methods. Oral administration was performed by oral gavage at a dosage volume of 5 ml/kg using a blunt feeding stainless steel needle (Popper & Sons, USA). Body weights were measured before dose administration and doses were calculated on the basis of individual body weight. Blood were withdrawn from animals at the following time points: 1, 2, 4, 8 and 24 hours after dosing as detailed in the table below. The actual sampling time were recorded. Each animal was restrained firmly. After the removal of the seal the port of the cannula was accessed with an appropriate blunted needle mounted on a syringe containing PBS. After having withdrawn approximately 100 μL of blood, the syringe was changed to a clean heparinized syringe. Approximately 250 μL of blood was collected for the preparation of plasma. The first 100 μL fraction of blood was returned and 250 μL of PBS was given to the animal through the catheter. The catheter was filled by heparinized glycerol (100 IU/ml) solution prepared by mixing 10 ml stock heparin (200 IU/ml) with 10 ml of sterile glycerol (d=1.26 g/mL). Blood specimens were mixed immediately and were placed on water ice. Whole blood was centrifuged at 2500 g for 10 min at 4° C., and the separated plasma was transferred into pre-labeled polypropylene tubes and the tubes were frozen at −70° C. within 70 minutes of collection. The concentrations of test items (Compound 1, Compound 2, Compound 3 and Laquinimod) and the concentration of DELAQ were determined in the plasma samples by using reliable LC/MS/MS assay. Pharmacokinetic parameters were calculated and the mean plasma levels versus time curves were evaluated. The following pharmacokinetic parameters were determined from the mean plasma concentration-time data (mean of three animals at each time point) of Compound 1, Compound 2, Compound 3 and Laquinimod.

[3] = test system: CYP1A2; conditions: human, 3 days; for Enzyme activity, Phenacetin O-dealkylation (CYP1A2) / Percent positive control, Phenacetin O-dealkylation (CYP1A2) activity: hepatocytes
Protocol: (§1) After treatment, the cells were incubated in situ with marker substrates for the analysis of phenacetin O-dealkylation (marker for CYP1A2) and midazolam 1′-hydroxylation (marker for CYP3A4/5) by LC/MS/MS.
Incubations of hepatocytes with probe substrates were conducted in accordance with SOP L5041.02. Approximately 24 hours after the last treatment, spent media was aspirated from the wells, and each well was rinsed two times with pre-warmed (37±2° C.) fresh culture media. Media was aspirated from the wells and reactions were started by addition of 200 μL pre-warmed media containing the probe substrate to each well. […] At 30 minutes, an aliquot (150 μL) of the incubation mixture was removed and added to a well of a 96-well plate containing 300 μL of stop reagent (acetonitrile) and internal standard (Table 2). The mixtures were mixed thoroughly and allowed to sit for at least 15 minutes at 2-8° C. Samples were centrifuged at 2000×g for 10 minutes at 2-8° C., and supernatant fractions were analyzed by LC/MS/MS.
All analyses were performed with validated LC/MS/MS methods. The procedures used for the analysis of each metabolite followed the applicable LC/MS/MS analytical method SOPs and are summarized in Table 2. The MS equipment was either an ABI Sciex (Applied Biosystems/MDS SCIEX) API 4000 or API 3000 instrument with Shimadzu HPLC pumps and autosampler systems.
Individual rates of reaction from like treatment groups were averaged, and for those groups with n≧3, standard deviations were determined. Fold increases were determined by dividing the enzymatic rate for each treatment group by that of the vehicle control. Percent positive control was calculated with the following equation: […]

[4] = test system: CYP1A2 mRNA; conditions: human, 3 days
Protocol: as §1
Approximately 24 hours after the last treatment, hepatocytes were lysed in TRIzol reagent after the in situ marker substrate incubations, and cell lysates were stored at −75±5° C. For human hepatocyte preparation H971, media from six wells per treatment group was aspirated, and approximately 132 μL TRIzol were added to each well. The cell lysates were mixed by repeated pipetting. Total RNA was isolated from the cell lysates using the TRIzol protocol (Invitrogen) and was purified using the RNeasy Mini Kit (Qiagen Inc.) according to SOP L6161.02. RNA quality and concentration were determined by measuring absorbance at 260 and 280 nm on a BioTek Synergy HT plate reader (BioTek Instruments, Inc.) with KC4 Signature software (version 3.4 Rev 21, BioTek Instruments, Inc.) according to SOP L6162.02. The analysis of RNA integrity was carried out with the RNA 6000 Nano Assay Kit on an Agilent 2100 Bioanalyzer (Agilent Technologies, Inc.) according to SOP L6162.02. Single-stranded cDNA was prepared from RNA with the RT Master Mix using the AB 7300 Real Time PCR system thermocycling program or AB 7900HT Fast Real Time PCR System thermocycling program (Applied Biosystems) according to SOP L6160.04. […] The RT Master Mix was added to each RNA sample to complete the components of the reaction. No template controls (NTCs) were included in the analysis. For the NTC reactions, RNase-free water was added in place of the RNA sample. The cDNA prepared samples were stored at −20±5° C. prior to analysis by qRT-PCR.
Quantitative RT-PCR was carried out according to SOP L6160.04 (XenoTech, LLC) and the Applied Biosystems protocol. Each PCR was performed in triplicate. A Primer Mix was prepared for each Gene Expression assay. A typical Primer Mix contained TaqMan Universal Master Mix (1×), Gene Expression Assay (1×, 900 nM forward and reverse primers) and RNase-free water. The Reaction Mix was prepared by adding the Primer Mix to cDNA. A percentage of samples (no less than 10%) included NACs. […] The relative quantity of the target cDNA compared with that of the control cDNA (GAPDH) was determined by the ΔΔCt method (Applied Biosystems User Bulletin #2). Relative quantification measures the change in mRNA expression in a test sample relative to that in a control sample (e.g., DMSO). This method assumes that the efficiency of the target amplification and the efficiency of the endogenous control amplification are approximately equal.
For qRT-PCR, data were processed using the Sequence Detection System (SDS) Software version 1.4, for Relative Quantification (Applied Biosystems). This software analyzes relative gene expression using the comparative Ct method (ΔΔCt), which relates the PCR signal of the target transcript to the PCR signal of the target in an untreated control. Both the treated sample and the untreated control signals are normalized to the endogenous control (GAPDH), for which expression is not affected by treatment and expression is constant throughout the tissue being tested. […] Calculations are as follows: ΔCt=Ct(target)−Ct(endogenous control) 1. ΔΔCt=ΔCt(treated sample)−ΔCt(untreated control) 2. Fold change in expression=2−ΔΔCt 3.
The level of mRNA expression relative to the positive control was calculated as follows: […]

[5] = female, rat, po, 0.2 mg/kg, Average of rats
[6] = female, rat, po, 0.2 mg/kg, Average of rats, read-out: Cmax
[7] = female, rat, po, 0.2 mg/kg, Average of rats, read-out: Tmax
[8] = female, rat, po, 0.2 mg/kg, individual rats
[9] = female, rat, po, 0.2 mg/kg, individual rats, read-out: Cmax
[10] = female, rat, po, 0.2 mg/kg, individual rats, read-out: Tmax
[11] = individual rats, oral 0.2 mg/kg

Row | SMILES | GMS value (group mean score) [1] | MMS value (mean maximal score) [1] | Mean Duration [1] | Mean Onset [1] | activity in inhibition of EAE clinical signs compared to laquinimod [1] | Mortality [1] | % inhibition 1 (according to incidence) [1] | % inhibition 2 (according to MMS) [1] | % inhibition 3 (according to GMS) [1] | Incidence [1] | AUC(0-inf) [2, 5] | AUC(0-t) [2, 5] | half-life [2, 5] | Cmax [2, 6] | Tmax [2, 7] | AUC(0-inf) [2, 8] | half-life [2, 8] | Cmax [2, 9] | Tmax [2, 10] | AUCinf [2, 11] | other results
1 | [2H]c1c([2H])c([2H])c(N(C(=O)c2c(O)c3c(Cl)cccc3n(C)c2=O)C([2H])([2H])C([2H])([2H])[2H])c([2H])c1[2H] [Compound 3, N-D5-ethyl-N-D5-phenyl-1,2-dihydro-4-hydroxy-5-chloro-1-methyl-2-oxoquinoline-3-carboxamide] | 0.89 ± 0.94 | 1.6 ± 1.6 | 9.6 ± 9.4 days | 21.5 ± 9.3 days | no significant difference in activity | 0/15 | 28.6% | 50.1% | 59.7% | 10/15 | 15800 ng·h/mL | 10500 ng·h/mL | 12.4 h | 835 ng/mL | 1.4 h | 15800 ng·h/mL | 11.5 h | 908 ng/mL | 1 h | 18246.2 ng·h/mL and 15225.2 ng·h/mL and 14845.1 ng·h/mL and 14643.7 ng·h/mL | AUClast [2, 11]: 12110.0 ng·h/mL and 12471.5 ng·h/mL and 11280.4 ng·h/mL and 5317.8 ng·h/mL and 11156.0 ng·h/mL; Cmax [2, 11]: 800.4 ng/mL and 728.9 ng/mL and 833.2 ng/mL and 904.3 ng/mL; T1/2 [2, 11]: 14.4 h and 12.7 h and 12.0 h and 11.6 h; Tmax [2, 11]: 2.0 h
2 | COc1ccc2[nH]c([S+]([O-])Cc3ncc(C)c(OC)c3C)nc2c1 (centres unmarked) [Omeprazole] |  |  |  |  |  |  |  |  |  |  |  |  |  |  |  |  |  |  |  |  | Enzyme activity, Phenacetin O-dealkylation (CYP1A2) ([3]; 100 μM): 84.9 ± 5.4 pmol/mg protein/min; Percent positive control, Phenacetin O-dealkylation (CYP1A2) activity ([3]; 100 μM): 100%; mRNA Fold increase, CYP1A2 ([4]; 100 μM): 8.58 fold; mRNA Percent positive control, CYP1A2 ([4]; hepatocytes, 100 μM): 100%
3 | COCC(=O)O[C@]1(CCN(C)CCCc2nc3ccccc3[nH]2)CCc2cc(F)ccc2[C@@H]1C(C)C [Mibefradil] |  |  |  |  |  |  |  |  |  |  |  |  |  |  |  |  |  |  |  |  | Fold Increase, Phenacetin O-dealkylation (CYP1A2) activity ([3]; 10 μM): 3.76 fold; Enzyme activity, Phenacetin O-dealkylation (CYP1A2) ([3]; 10 μM): 11.3 ± 2.1 pmol/mg protein/min; Percent positive control, Phenacetin O-dealkylation (CYP1A2) activity ([3]; 10 μM): 10.1%; mRNA Fold increase, CYP1A2 ([4]; 10 μM): 0.423 fold; decrease in CYP1A2 mRNA levels compared to vehicle control ([4]; hepatocytes, 10 μM): 57.7%; mRNA Percent positive control, CYP1A2 ([4]; hepatocytes, 10 μM): −7.61%
4 | [2H]c1c([2H])c([2H])c(N(CC)C(=O)c2c(O)c3c(Cl)cccc3n(C)c2=O)c([2H])c1[2H] [Compound 1, N-ethyl-N-D5-phenyl-1,2-dihydro-4-hydroxy-5-chloro-1-methyl-2-oxoquinoline-3-carboxamide] | 0.74 ± 0.86 | 1.5 ± 1.7 | 7.9 ± 8.2 days | 22.1 ± 8.9 days | no significant difference in activity | 0/15 | 42.9% | 53.1% | 66.5% | 8/15 | 13800 ng·h/mL | 10400 ng·h/mL | 11.3 h | 774 ng/mL | 1.8 h | 19300 ng·h/mL | 13.4 h | 945 ng/mL | 1 h | 13617.9 ng·h/mL and 9733.8 ng·h/mL and 12447.9 ng·h/mL | AUC(0-t) [2, 8]: 13700 ng·h/mL; AUClast [2, 11]: 10011.7 ng·h/mL and 8039.3 ng·h/mL and 10061.6 ng·h/mL; Cmax [2, 11]: 730.7 ng/mL and 611.9 ng/mL and 809.5 ng/mL; T1/2 [2, 11]: 12.1 h and 9.5 h and 10.0 h; Tmax [2, 11]: 2.0 h
